Laboratory results from patent publication US8242086B2, “Methods and compositions for treating disorders caused by a deficiency in a gene product of a CLN gene” (Duke University, priority 2008, dated 2012).

What was measured:
lymphoblasts = test: Propidium iodide staining of lymphoblasts treated with GCT siRNA, with or without etoposide; assay type: cell-based, human
Method: Propidium iodide (PI) staining. Lymphoblasts (treated with GCT siRNA vs. control siRNA) were treated vs. not treated with etoposide and stained with propidium iodide (PI). The percentage of PI positive cells was counted in each.

CLN3 knockdown NT2 cells [1] = test: Cell apoptosis rate in CLN3 knockdown NT2 cells, propidium iodide; assay type: cell-based, human; conditions: NT2 cells, 3 days post-transfection, vs wild type
Method: (§1) Cell Culture and Cell Treatment. NT2 neuronal precursor cells (ATCC cat no. CRL 1973) were grown in DMEM supplemented with 1% sodium pyruvate, L-glutamine and antibiotics and incubated in 37 C and 5% CO2 for 3 days.
(§2) siRNA knockdown of CLN3 in NT2 cells. HS1 siRNA ([…]) for CLN3 knockdown was designed using BLOCK-iT RNA™ Designer (Invitrogen). […] siRNA and scrambled universal negative control siRNA oligonucleotides were transfected into wild type NT2 cells using Lipofectamine RNAiMax™ according to manufacturer's protocol. In brief, […] HS1 RNAi duplex or scrambled siRNA universal negative control were diluted in 50 μl DMEM medium without serum. Lipofectamine™ RNAiMAX was mixed gently before use, then 1 μl was diluted in 50 μl DMEM medium. The diluted RNAi duplexes were combined with the diluted Lipofectamine RNAiMAX and incubated for 10 minutes at room temperature. […]
Determination of cell apoptosis rate in CLN3 knockdown NT2 cells. 10^6 cells transfected with CLN3 siRNA or scrambled siRNA, either treated with 50 ng/ml of GalCer (Avanti Polar Lipids, inc.) or solvent, are suspended in 100 μl PBS, incubated with 100 μl/0.5 mg/ml PI, washed, placed on slides and viewed using a fluorescence microscope. […] Cells in three fields of vision were counted. Percentage of red staining-apoptotic cells/total cells was determined.

CLN3 knockdown NT2 cells [2] = test: Cell proliferation rate in CLN3 knockdown NT2 cells, Trypan blue dye exclusion; assay type: cell-based, human; conditions: NT2 cells, 3 days post-transfection, vs WT-NT2
Method: as §1
as §2, with “temperature. The RNAi duplex-Lipofectamine™ RNAiMAX complexes were added to cells for a final RNA concentration of 10 nM.” for “temperature.”
Determination of cell proliferation rate in CLN3 knockdown NT2 cells. 4×10^5 cells transfected with CLN3 siRNA or scrambled siRNA, and treated or not treated with 50 ng/ml GalCer, were seeded and counted with Trypan blue dye exclusion. […]
NT2 cell proliferation and apoptosis rates. An equal number of NT2 cells was initially seeded and cell number determined at different time points with Trypan blue dye exclusion. […]

CLN3 transcript = test: Real-Time PCR validation of CLN3 knockdown in NT2 cells; assay type: cell-based, human; conditions: 3 days post-transfection, vs scrambled siRNA
Method: siRNA knockdown of CLN3 in NT2 cells. HS1 siRNA ([…]) for CLN3 knockdown was designed using BLOCK-iT RNA™ Designer (Invitrogen). […] siRNA and scrambled universal negative control siRNA oligonucleotides were transfected into wild type NT2 cells using Lipofectamine RNAiMax™ according to manufacturer's protocol. In brief, […] HS1 RNAi duplex or scrambled siRNA universal negative control were diluted in 50 μl DMEM medium without serum. Lipofectamine™ RNAiMAX was mixed gently before use, then 1 μl was diluted in 50 μl DMEM medium. The diluted RNAi duplexes were combined with the diluted Lipofectamine RNAiMAX and incubated for 10 minutes at room temperature. The RNAi duplex-Lipofectamine™ RNAiMAX complexes were added to cells for a final RNA concentration of 10 nM. Cells were harvested 96 hours post-transfection.
Real-Time PCR validation of CLN3 knockdown. To calculate the effect of CLN3 knockdown following siRNA transfection, RNA from NT2 cells, transfected either with CLN3 siRNA or with scrambled siRNA, was isolated using Trizol reagent (Invitrogen). Reverse transcription was carried out with SuperScript III First-Strand-Synthesis System (Invitrogen). Real Time-PCR was conducted on 500 ng cDNA using /SYBRGreen 10 Mix (Biorad, U.S.A) in a Biorad I-Cycler. […] To confirm CLN3 knockdown, change in fold expression compared to scrambled siRNA transfected control cells was calculated. […]

CLN8 protein = test: Protein-lipid overlay assay, CLN8 protein; assay type: binding; conditions: lysates from normal cells, custom made sphingostrips
Method: (§3) Protein-lipid overlay assay. Membrane arrays (SPHINGOSTRIPS (Echelon Research Laboratories, Salt Lake City, Utah), or lipids were spotted on nitrocellulose membranes and dried for at least one hour. Membranes were blocked with 3% (wt/vol) Fatty Acid Free or FFA-BSA (Sigma-Aldrich, St. Louis, Mo.) in Tris-Buffered Saline Tween-20 (TBST) [150 mM NaCl/10 mM Tris.HCl (pH 8.0), and 0.1% (vol/vol) Tween-20] for 1 h at RT. Blocked membranes were incubated for 8 h at 4° C. with 2 mg/ml of total cell lysate.
(§4) Fibroblasts overexpressing CLN3p (AC1 cells) and JNCL fibroblasts were used for the GalCer-CLN3 binding assay. The membranes were then washed five times for 5 min each with TBST. After washing, membranes were incubated with anti-CLN3, CLN1, CLN2, CLN6 or CLN8-antibodies overnight at 1:1000 dilution, followed by additional washing and incubation with horseradish peroxidase-conjugated anti-rabbit IgG goat antibody for 1 h at RT. After a final washing, enhanced chemiluminescence was used to detect binding of NCL proteins to sphingolipids. Intensity values were computed with an ImageJ software program.
(§5) CLN1, CLN2, CLN6, CLN8 and CLN9 proteins also bind to lipids. […]

CLN2 protein = molecular target: T1, CLN2 protein (Homo sapiens, UniProt O14773); test: Protein-lipid overlay assay, CLN2 protein; assay type: binding; conditions: lysates from normal cells, custom made sphingostrips
T1 construct: endogenous in cells
T1 sequence (O14773 196-563): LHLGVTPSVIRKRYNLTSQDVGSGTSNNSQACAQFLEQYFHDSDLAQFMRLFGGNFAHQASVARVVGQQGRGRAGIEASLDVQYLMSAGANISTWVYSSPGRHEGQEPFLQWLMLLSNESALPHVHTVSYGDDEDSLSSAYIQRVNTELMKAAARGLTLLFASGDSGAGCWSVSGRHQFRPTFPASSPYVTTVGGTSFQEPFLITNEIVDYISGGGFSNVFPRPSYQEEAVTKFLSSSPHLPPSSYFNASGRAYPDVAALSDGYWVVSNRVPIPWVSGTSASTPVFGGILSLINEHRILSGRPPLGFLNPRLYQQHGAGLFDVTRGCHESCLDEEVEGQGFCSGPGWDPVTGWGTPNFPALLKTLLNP
Method: as §3, §4, §5

CLN6 protein = molecular target: T2, CLN6 protein (Homo sapiens, UniProt Q9NWW5); test: Protein-lipid overlay assay, CLN6 protein; assay type: binding; conditions: lysates from normal cells, custom made sphingostrips
T2 construct: endogenous in cells
T2 sequence (Q9NWW5 1-311): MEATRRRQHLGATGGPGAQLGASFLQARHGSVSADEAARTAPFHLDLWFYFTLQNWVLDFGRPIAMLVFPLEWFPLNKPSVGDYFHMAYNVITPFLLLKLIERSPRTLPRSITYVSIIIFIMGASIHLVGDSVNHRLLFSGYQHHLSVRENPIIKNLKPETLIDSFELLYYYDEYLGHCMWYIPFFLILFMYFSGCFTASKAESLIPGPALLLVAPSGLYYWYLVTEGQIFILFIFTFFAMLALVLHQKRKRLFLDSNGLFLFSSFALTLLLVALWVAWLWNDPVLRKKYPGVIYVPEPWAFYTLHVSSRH
Method: as §3, §4
CLN1, CLN2, CLN6, CLN8 and CLN9 proteins also bind to lipids. The protein-lipid overlay assay, using custom made sphingostrips, lysates from normal cells and anti-CLN1, anti-CLN2-, anti-CLN6, and anti-CLN8-antibodies, established that CLN6 and CLN8 proteins bind to GalCer, CLN1, CLN2 and CLN6p bind lysophosphatidic acid (LPA) and sulfatide, and CLN8p binds ceramide (FIG. 5).

CLN1 protein = molecular target: T3, CLN1 protein (Homo sapiens, UniProt P50897); test: Protein-lipid overlay assay, CLN1 protein; assay type: binding; conditions: lysates from normal cells, custom made sphingostrips
T3 construct: endogenous in cells
T3 sequence (P50897 28-306): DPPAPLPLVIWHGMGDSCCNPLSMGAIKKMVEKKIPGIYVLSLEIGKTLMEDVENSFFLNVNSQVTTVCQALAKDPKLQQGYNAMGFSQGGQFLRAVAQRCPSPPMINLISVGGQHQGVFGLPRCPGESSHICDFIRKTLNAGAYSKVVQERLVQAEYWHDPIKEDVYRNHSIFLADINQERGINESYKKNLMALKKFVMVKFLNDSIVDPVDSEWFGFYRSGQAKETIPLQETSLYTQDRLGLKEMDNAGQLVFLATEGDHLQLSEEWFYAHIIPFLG
Method: as §3, §4, §5

wild-type CLN3p = molecular target: T4, wild-type CLN3p (Homo sapiens, UniProt Q13286); test: Protein-lipid overlay assay, wild-type CLN3p; assay type: binding; conditions: lysate of CLN3-overexpressing cells, anti-CLN3 antibody
T4 construct: expressed in transfected cells; host or cells: fibroblasts overexpressing CLN3p (AC1 cells)
T4 sequence (Q13286 1-438): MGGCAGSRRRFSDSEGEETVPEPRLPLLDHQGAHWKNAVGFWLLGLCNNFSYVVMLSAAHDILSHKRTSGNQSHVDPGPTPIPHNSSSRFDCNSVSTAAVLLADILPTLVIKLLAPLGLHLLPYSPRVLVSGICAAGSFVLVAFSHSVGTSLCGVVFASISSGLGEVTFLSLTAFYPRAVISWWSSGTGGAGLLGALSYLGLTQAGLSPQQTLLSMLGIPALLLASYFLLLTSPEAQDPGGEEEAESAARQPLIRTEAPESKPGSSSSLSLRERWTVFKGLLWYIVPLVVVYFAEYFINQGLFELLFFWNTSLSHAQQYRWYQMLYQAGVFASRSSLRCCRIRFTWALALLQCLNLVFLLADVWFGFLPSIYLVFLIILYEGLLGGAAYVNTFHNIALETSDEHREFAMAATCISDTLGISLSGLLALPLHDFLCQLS
Method: as §3, §4
Binding of CLN3 to GalCer and sulfatide. Membranes impregnated with sphingolipids were overlaid with protein cell lysates from CLN3-overexpressing and JNCL cells. Anti-CLN3 antibody was used to evaluate binding. […] The signal for GalCer-wild-type CLN3p binding was weaker because the more polar sulfatide competes with the less polar GalCer for binding to wild-type CLN3p.

mutant CLN3p = test: Protein-lipid overlay assay, mutant CLN3p (JNCL cell lysate); assay type: binding, human; conditions: lysate of JNCL cells, anti-CLN3 antibody
Method: as §3, §4
Binding of CLN3 to GalCer and sulfatide. Membranes impregnated with sphingolipids were overlaid with protein cell lysates from CLN3-overexpressing and JNCL cells. Anti-CLN3 antibody was used to evaluate binding. […]

Question: Which “effect of etoposide on apoptosis of GCT knockdown cells” value (lymphoblasts) does the source give for `COc1cc([C@@H]2c3cc4c(cc3[C@@H](O[C@@H]3O[C@@H]5CO[C@@H](C)O[C@H]5[C@H](O)[C@H]3O)[C@H]3COC(=O)[C@H]23)OCO4)cc(OC)c1O` [Etoposide, etoposide] here?
Answer: augmented the effect of reduced GalCer on apoptosis

Question: “HS1: HS1 siRNA (TCACGATTTGACTGCAACTCTG) for CLN3 knockdown (listed as DNA, chemistry not given here) [reference compound]” was tested. Which increase in apoptosis (CLN3 knockdown NT2 cells [1]) did it give?
Answer: 2.4 fold

Question: What about the decrease in growth (CLN3 knockdown NT2 cells [2]) of the same molecule?
Answer: 58%

Question: What about the “decrease in CLN3 expression” value (CLN3 transcript) of the same molecule?
Answer: 22 fold

Question: ceramide was tested. Which “binding of CLN8 protein to lipid” value (CLN8 protein) did it give?
Answer: binds

Question: lysophosphatidic acid was tested. Which “binding of CLN2 protein to lipid” value (CLN2 protein) did it give?
Answer: bind

Question: And the “binding of CLN6 protein to lipid” value (CLN6 protein)?
Answer: bind

Question: And the “binding of CLN1 protein to lipid” value (CLN1 protein)?
Answer: bind

Question: Which results are given for sulfatide?
Answer: binding of wild-type CLN3p to membrane spots impregnated with the lipid (wild-type CLN3p): bind strongly; binding of mutant CLN3 to membrane spots impregnated with the lipid (mutant CLN3p): failed to do so; binding of CLN2 protein to lipid (CLN2 protein): bind; binding of CLN6 protein to lipid (CLN6 protein): bind; binding of CLN1 protein to lipid (CLN1 protein): bind
